What was measured:
CAKI-1 [1] = assay: Growth inhibition of human CAKI-1 cells after 48 hrs by sulforhodamine B assay; assay type: functional; settings: CAKI-1, 48 h; for CC50: read-out: LC50 (the source's name)
M14 = assay: Growth inhibition of human M14 cells assessed as cell growth at 10 uM after 48 hrs by sulforhodamine B assay; assay type: functional; settings: M14, 48 h, read-out: Activity
OVCAR-5 = assay: Growth inhibition of human OVCAR5 cells assessed as cell growth at 10 uM after 48 hrs by sulforhodamine B assay; assay type: functional; settings: OVCAR-5, 48 h, read-out: Activity
RPMI-8226 = assay: Growth inhibition of human RPMI8226 cells after 48 hrs by sulforhodamine B assay; assay type: functional, cell-based; settings: RPMI-8226, 48 h; for CC50: read-out: LC50 (the source's name)
[2] = Growth inhibition of human HCC2998 cells assessed as cell growth at 10 uM after 48 hrs by sulforhodamine B assay; assay type: functional; settings: HCC 2998, 48 h, read-out: Activity
UO-31 = assay: Growth inhibition of human UO31 cells assessed as cell growth at 10 uM after 48 hrs by sulforhodamine B assay; assay type: functional; settings: UO-31, 48 h, read-out: Activity
K562 = assay: Growth inhibition of human K562 cells assessed as cell growth at 10 uM after 48 hrs by sulforhodamine B assay; assay type: functional; settings: K562, 48 h, read-out: Activity
UACC-62 = assay: Growth inhibition of human UACC62 cells assessed as cell growth at 10 uM after 48 hrs by sulforhodamine B assay; assay type: functional; settings: UACC-62, 48 h, read-out: Activity
TK-10 = assay: Growth inhibition of human TK10 cells after 48 hrs by sulforhodamine B assay; assay type: functional; settings: TK-10, 48 h; for CC50: read-out: LC50 (the source's name)
CCRF-CEM = assay: Growth inhibition of human CCRF-CEM cells after 48 hrs by sulforhodamine B assay; assay type: functional
[3] = Growth inhibition of human Hs 578T cells after 48 hrs by sulforhodamine B assay; assay type: functional; settings: for CC50: read-out: LC50 (the source's name)
786-0 = assay: Growth inhibition of human 786-0 cells after 48 hrs by sulforhodamine B assay; assay type: functional; settings: 786-0, 48 h; for CC50: read-out: LC50 (the source's name)
[4] = Growth inhibition of human NCI-ADR-RES cells assessed as cell growth at 10 uM after 48 hrs by sulforhodamine B assay; assay type: functional; settings: read-out: Activity
MCF7 = assay: Growth inhibition of human MCF7 cells assessed as cell growth at 10 uM after 48 hrs by sulforhodamine B assay; assay type: functional; settings: MCF7, 48 h, read-out: Activity
OVCAR-8 [5] = assay: Growth inhibition of human OVCAR8 cells after 48 hrs by sulforhodamine B assay; assay type: functional; settings: OVCAR-8, 48 h; for CC50: read-out: LC50 (the source's name)
BT-549 [6] = assay: Growth inhibition of human BT549 cells assessed as cell growth at 10 uM after 48 hrs by sulforhodamine B assay; assay type: functional; settings: BT-549, 48 h, read-out: Activity
HL-60(TB) = assay: Growth inhibition of human HL-60(TB) cells after 48 hrs by sulforhodamine B assay; assay type: functional; settings: HL-60, 48 h; for CC50: read-out: LC50 (the source's name)
ACHN = assay: Growth inhibition of human ACHN cells assessed as cell growth at 10 uM after 48 hrs by sulforhodamine B assay; assay type: functional; settings: read-out: Activity
SK-MEL-28 = assay: Growth inhibition of human SK-MEL-28 cells after 48 hrs by sulforhodamine B assay; assay type: functional; settings: SK-MEL-28, 48 h
SF-268 = assay: Growth inhibition of human SF268 cells after 48 hrs by sulforhodamine B assay; assay type: functional; settings: SF-268, 48 h; for CC50: read-out: LC50 (the source's name)
NCI-H322M = assay: Growth inhibition of human NCI-H322M cells after 48 hrs by sulforhodamine B assay; assay type: functional; settings: for CC50: read-out: LC50 (the source's name)
COLO 205 [7] = assay: Growth inhibition of human COLO205 cells assessed as cell growth at 10 uM after 48 hrs by sulforhodamine B assay; assay type: functional; settings: COLO 205, 48 h, read-out: Activity
HOP-92 = assay: Growth inhibition of human HOP92 cells assessed as cell growth at 10 uM after 48 hrs by sulforhodamine B assay; assay type: functional; settings: HOP-92, 48 h, read-out: Activity
OVCAR-8 [8] = assay: Growth inhibition of human OVCAR8 cells assessed as cell growth at 10 uM after 48 hrs by sulforhodamine B assay; assay type: functional; settings: OVCAR-8, 48 h, read-out: Activity
Malme-3M = assay: Growth inhibition of human MALME-3M cells after 48 hrs by sulforhodamine B assay; assay type: functional
MDA-MB-231 [9] = assay: Growth inhibition of human MDA-MB-231 cells assessed as cell growth at 10 uM after 48 hrs by sulforhodamine B assay; assay type: functional; settings: MDA-MB-231, 48 h, read-out: Activity
NCI-H522 [10] = assay: Growth inhibition of human NCI-H522 cells after 48 hrs by sulforhodamine B assay; assay type: functional; settings: NCI-H522, 48 h
SW-620 = assay: Growth inhibition of human SW620 cells assessed as cell growth at 10 uM after 48 hrs by sulforhodamine B assay; assay type: functional; settings: SW-620, 48 h, read-out: Activity
BT-549 [11] = assay: Growth inhibition of human BT549 cells after 48 hrs by sulforhodamine B assay; assay type: functional; settings: BT-549, 48 h
CAKI-1 [12] = assay: Growth inhibition of human CAKI-1 cells assessed as cell growth at 10 uM after 48 hrs by sulforhodamine B assay; assay type: functional; settings: CAKI-1, 48 h, read-out: Activity
COLO 205 [13] = assay: Growth inhibition of human COLO205 cells after 48 hrs by sulforhodamine B assay; assay type: functional; settings: COLO 205, 48 h
NCI-H522 [14] = assay: Growth inhibition of human NCI-H522 cells assessed as cell growth at 10 uM after 48 hrs by sulforhodamine B assay; assay type: functional; settings: NCI-H522, 48 h, read-out: Activity
MDA-MB-231 [15] = assay: Growth inhibition of human MDA-MB-231 cells after 48 hrs by sulforhodamine B assay; assay type: functional; settings: MDA-MB-231, 48 h
MDA-MB-435 = assay: Growth inhibition of human MDA-MB-435 cells after 48 hrs by sulforhodamine B assay; assay type: functional, cell-based; settings: MDA-MB-435, 48 h; for CC50: read-out: LC50 (the source's name)

## COc1cc(-c2nn(-c3cccc(NC(=O)Nc4ccc(Cl)c(Cl)c4)c3)cc2-c2ccncc2)ccc1Cl
CAKI-1 [1]
  GI50: 1.12 µM
  TGI: 3.7 µM
  CC50: > 50 µM
M14
  growth at 10 µM: 0.29%
OVCAR-5
  growth at 10 µM: 38%
RPMI-8226
  GI50: 0.388 µM
  IC50: 0.39 µM
  TGI: 3.26 µM
  CC50: > 50 µM
[2]
  growth at 10 µM: 2.84%
UO-31
  growth at 10 µM: 15.9%
K562
  growth at 10 µM: 3.63%
UACC-62
  growth at 10 µM: -65.1%
TK-10
  GI50: 1.43 µM
  TGI: 40.9 µM
  CC50: > 50 µM
CCRF-CEM
  GI50: 1.04 µM
  LC50: > 50 µM
[3]
  GI50: 1.43 µM
  TGI: > 50 µM
  CC50: > 50 µM
786-0
  GI50: 1.31 µM
  TGI: 4.47 µM
  CC50: > 50 µM
[4]
  growth at 10 µM: 0.32%
MCF7
  growth at 10 µM: 1.73%
OVCAR-8 [5]
  GI50: 0.931 µM
  TGI: 3.61 µM
  CC50: > 50 µM
BT-549 [6]
  growth at 10 µM: 6.23%
HL-60(TB)
  GI50: 1.66 µM
  TGI: > 50 µM
  CC50: > 50 µM
ACHN
  growth at 10 µM: 11.5%
SK-MEL-28
  GI50: 1.43 µM
  LC50: > 50 µM
  TGI: 7.32 µM
SF-268
  GI50: 1.51 µM
  TGI: 20.3 µM
  CC50: > 50 µM
NCI-H322M
  GI50: 1.69 µM
  TGI: > 50 µM
  CC50: > 50 µM
COLO 205 [7]
  growth at 10 µM: -80.4%
HOP-92
  growth at 10 µM: -34.3%
OVCAR-8 [8]
  growth at 10 µM: -17.2%
Malme-3M
  GI50: 0.926 µM
  LC50 (concentration killing 50% of starting cells): > 50 µM
  TGI: 2.42 µM
MDA-MB-231 [9]
  growth at 10 µM: -40.1%
NCI-H522 [10]
  GI50: 0.811 µM
  LC50 (concentration killing 50% of cells): > 50 µM
  TGI: 3.1 µM
SW-620
  growth at 10 µM: 13.4%
BT-549 [11]
  GI50: 1.68 µM
  LC50 (50% lethal concentration): > 50 µM
  TGI: 27.6 µM
CAKI-1 [12]
  growth at 10 µM: 16.8%
COLO 205 [13]
  GI50: 0.937 µM
  LC50 (concentration killing 50% of cells): 3.14 µM
  TGI: 1.72 µM
NCI-H522 [14]
  growth at 10 µM: -14.7%
MDA-MB-231 [15]
  GI50: 0.698 µM
  LC50: 12.9 µM
  TGI: 1.92 µM
MDA-MB-435
  GI50: 0.938 µM
  IC50: 0.94 µM
  TGI: 2.39 µM
  CC50: > 50 µM

## COc1cc(-c2nn(-c3cccc(NC(=O)c4ccccc4)c3)cc2-c2ccncc2)ccc1Cl
CAKI-1 [1]
  GI50: 1.16 µM
  TGI: > 100 µM
  CC50: > 100 µM
M14
  growth at 10 µM: -3.82%
OVCAR-5
  growth at 10 µM: 66.4%
RPMI-8226
  GI50: 0.85 µM
  IC50: 0.85 µM
  TGI: > 100 µM
  CC50: > 100 µM
[2]
  growth at 10 µM: 20.1%
UO-31
  growth at 10 µM: 29.8%
K562
  growth at 10 µM: 2.59%
UACC-62
  growth at 10 µM: 32.5%
TK-10
  GI50: 7 µM
  TGI: > 100 µM
  CC50: > 100 µM
CCRF-CEM
  GI50: 0.492 µM
  LC50: > 100 µM
  TGI: > 100 µM
[3]
  GI50: 1.11 µM
  TGI: > 100 µM
  CC50: > 100 µM
786-0
  GI50: 1.52 µM
  TGI: > 100 µM
  CC50: > 100 µM
[4]
  growth at 10 µM: 0.34%
MCF7
  growth at 10 µM: 4.67%
OVCAR-8 [5]
  GI50: 0.995 µM
  TGI: > 100 µM
  CC50: > 100 µM
BT-549 [6]
  growth at 10 µM: 1.29%
HL-60(TB)
  GI50: 0.479 µM
  TGI: > 100 µM
  CC50: > 100 µM
ACHN
  growth at 10 µM: 32.3%
SK-MEL-28
  GI50: 3.86 µM
  LC50: > 100 µM
  TGI: > 100 µM
SF-268
  GI50: 0.859 µM
  TGI: > 100 µM
  CC50: > 100 µM
NCI-H322M
  GI50: 4.59 µM
  TGI: > 100 µM
  CC50: > 100 µM
COLO 205 [7]
  growth at 10 µM: 2.21%
HOP-92
  growth at 10 µM: 9.19%
OVCAR-8 [8]
  growth at 10 µM: 19.6%
Malme-3M
  GI50: 0.537 µM
  LC50 (concentration killing 50% of starting cells): > 100 µM
  TGI: > 100 µM
MDA-MB-231 [9]
  growth at 10 µM: 5.8%
NCI-H522 [10]
  GI50: 0.317 µM
  LC50 (concentration killing 50% of cells): > 100 µM
  TGI: > 100 µM
SW-620
  growth at 10 µM: 18.4%
BT-549 [11]
  GI50: 1.33 µM
  LC50 (50% lethal concentration): > 100 µM
  TGI: > 100 µM
CAKI-1 [12]
  growth at 10 µM: 40.6%
COLO 205 [13]
  GI50: 0.522 µM
  LC50 (concentration killing 50% of cells): 68.4 µM
  TGI: 3.23 µM
NCI-H522 [14]
  growth at 10 µM: -29.6%
MDA-MB-231 [15]
  GI50: 1.17 µM
  LC50: > 100 µM
  TGI: 13.7 µM
MDA-MB-435
  GI50: 0.189 µM
  IC50: 0.19 µM
  TGI: 0.551 µM
  CC50: 12.3 µM
